Several values for one entry are separate records, joined by “and”; a condition that tells them apart may be missing. Equal values may be shown once.
Columns and labels:
293T cells [1] = experiment: Fluorescent detection of Fluc-mRNA (cell transfection efficiency of LNP formulations); format: cell-based; conditions: for Relative light unit (RLU): LNP formulation containing 0.3 μg Fluc-mRNA, 96-well plate, 24 hours; for Multiples (YK-101): RLU of YK-101 / RLU of named substance; for Multiples (YK-107): RLU of YK-107 / RLU of named substance; for Multiples (YK-108): RLU of YK-108 / RLU of named substance; for Ratio relative to SM-102: RLU of named substance / RLU of SM-102; for fluorescence absorption value, times that of HHMA: RLU of named substance / RLU of HHMA; for fluorescence absorption value, times that of Lipofectamine 3000: RLU of named substance / RLU of Lipofectamine 3000; for Fluc-mRNA expression signal intensity, times that of compound 21: RLU of named substance / RLU of compound 21; for fluorescence absorption value, times that of compound 23: RLU of named substance / RLU of compound 23
Procedure: (§1) Cell recovery and passage: 293T cells were recovered, cultured in a culture dish, and passaged to the required number of cells.
(§2) Seeding plate: The cells in the culture dish were digested and counted. Cells were spread in a 96-well plate at 10,000 cells per well and in a 12-well plate at 150,000 cells per well. Cells were cultured overnight until the cells adhered to the wall.
Cell recovery and passage: the method was the same as in Example 3.
Seeding plate: the method was the same as in Example 3.
An LNP formulation containing 0.3 μg of Fluc-mRNA (the carrier components of the LNP formulation were cationic lipid, neutral lipid, structured lipid and polymer-conjugated lipid with a molar ratio of 49:10:39.5:1.5, wherein the cationic lipid was listed in Table 1) was added to the cell culture medium of a 96-well plate, and further incubated for 24 hours. The corresponding reagent was added according to the instructions of the Gaussia Luciferase Assay Kit, and the fluorescence expression intensity of each well was detected by an IVIS fluorescence detection system. This test verified the transfection efficiencies of LNP formulations in cells, see Tables 3-6 for specific test results.

293T cells [2] = experiment: Cell survival rate determination (CCK-8); format: cell-based; conditions: for Cell survival rate (%): LNP formulation containing 1.5 μg Fluc-mRNA, 24 hours, CCK-8, absorbance at 450 nm; for cell survival rate lower than that of YK-101: cell survival rate of YK-101 minus that of named substance; for cell survival rate lower than that of YK-107: cell survival rate of YK-107 minus that of named substance; for cell survival rate lower than that of YK-108: cell survival rate of YK-108 minus that of named substance
Procedure: as §1, §2
An LNP formulation containing 1.5 μg of Fluc-mRNA (the cater component of the LNP formulation were cationic lipid, neutral lipid, structured lipid and polymer-conjugated lipid with a molar ratio of 49: 10: 39.5: 1.5, wherein the cationic lipid was listed in Table 1) and the formulation of Lipofectamine 3000 were added to the cell culture medium of a 96-well plate, and further cultivated for 24 hours. 10 μL of CCK-8 solution was then added to each well, and the culture plate was incubated in an incubator for 1 hour. The absorbance at 450 nm was measured by a microplate reader.

BALB/C mice = experiment: In vivo imaging of Fluc-mRNA expression in mice delivered by LNP formulations; conditions: LNP containing 10 pg Fluc-mRNA, intramuscular, female BALB/C mice
Procedure: The LNP formulation containing […] Fluc-mRNA was injected intramuscularly into female BALB/C mice aged 4-6 weeks old and weighed 17-19 g, and the mice were intraperitoneally injected with fluorescent imaging substrate at specific time points after administration (6h, 24 h, 48h and 7d), where the mice were allowed to move freely for 5 minutes, and then the average radiation intensity (corresponding to fluorescence expression intensity) of the protein expression of the mRNA carried by the LNP in the mice was detected by the IVIS Spectrum small animal in vivo imaging device. The test results are shown in Tables 11 to 14 and FIGS. 12 to 14.

SMILES	Relative light unit (RLU) (293T cells [1])	Multiples (YK-101) (293T cells [1])	Multiples (YK-107) (293T cells [1])	Multiples (YK-108) (293T cells [1])	Ratio relative to SM-102 (293T cells [1])	Cell survival rate (%) (293T cells [2])	average radiation intensity, 6 h (BALB/C mice)	average radiation intensity, 24 h (BALB/C mice)	average radiation intensity, 48 h (BALB/C mice)	average radiation intensity, 7 d (BALB/C mice)	fluorescence absorption value, times that of HHMA (293T cells [1])	fluorescence absorption value, times that of Lipofectamine 3000 (293T cells [1])	Fluc-mRNA expression signal intensity, times that of compound 21 (293T cells [1])	fluorescence absorption value, times that of compound 23 (293T cells [1])	cell survival rate lower than that of YK-101 (293T cells [2])	cell survival rate lower than that of YK-107 (293T cells [2])	cell survival rate lower than that of YK-108 (293T cells [2])	cell transfection activity, times that of YK-112 (293T cells [1])	cell transfection efficiency, times that of YK-118 (293T cells [1])	cell transfection efficiency, times that of YK-119 (293T cells [1])
CCCCCCCCCCOC(=O)CCCN(CCO)CCCCCC(=O)OCCC(CCCCCC)CCCCCC [YK-101, 3-hexylnonyl-6-(4-(decyloxy)-4-oxobutyl)((2-hydroxyethyl)amino)hexanoate]	20335193 RLU	1.00	1.10	1.21	13.25	90.12%	1496240	1056210	185905	12165										
CCCCCCCCCCOC(=O)CCCN(CCCCCC(=O)OCCC(CCCCCC)CCCCCC)C[C@H](O)CO [YK-116, 3-hexylnonyl 6-(4-(decyloxy)-4-oxobutyl)(((S)-2,3-dihydroxypropyl)amino)hexanoate]	1321284 RLU	15.39	16.92	18.66	0.86	67.96%					0.65 times	1.23 times	0.95 times	1.02 times	22.16%	22.49%	21.90%			
CCCCCCCCCCOC(=O)CCCN(CCCCCC(=O)OCCC(CCCCCC)CCCCCC)CCC(C)(C)O [YK-119, 3-hexylnonyl 6-(4-(decyloxy)-4-oxobutyl)((3-hydroxy-3-methylbutyl)amino)hexanoate]	8557 RLU				0.0056	80.27%					0.0042 times	0.0080 times	0.0062 times	0.0066 times	9.85%	10.18%	9.59%			
CCCCCCCCC(CCCCCCCC)COC(=O)CCCCCN(CCO)CCCCCC(=O)OCCSCCCC [YK-113, 2-octyldecyl 6-(6-(2-(butylthio)ethoxy)-6-oxohexyl)((2-hydroxyethyl)amino)hexanoate]	151694 RLU	134.05		162.57	0.10	43.05%					0.07 times	0.14 times	0.11 times	0.12 times	47.07% and 40%	47.40% and 40%	46.81% and 40%	up to 75 times		
CCCCCCCCCCOC(=O)CCCN(CCCCCC(=O)OCCC(CCCCCC)CCCCCC)CCC(C)O (stereo not shown) [YK-118, 3-hexylnonyl 6-(4-(decyloxy)-4-oxobutyl)((3-hydroxybutyl)amino)hexanoate]	21310 RLU		1049.33	1157.23	0.0139	63.33%					0.0104 times	0.0199 times	0.0153 times	0.0165 times	26.79%	27.12%	26.53%			
CCCCCCCCCCOC(=O)CCCN(CCCCCC(=O)OCCC(CCCCCC)CCCCCC)C[C@H](C)O [YK-117, 3-hexylnonyl 6-(4-(decyloxy)-4-oxobutyl)(((S)2-hydroxypropyl)amino)hexanoate]	695716 RLU	29.23	32.14	35.45	0.45	57.93%					0.34 times	0.65 times	0.50 times	0.54 times	32.19%	32.52%	31.93%		33 times	80 times
CCCCCCC(CCCCCC)CCOC(=O)CCCCCN(CCO)CCCCCC(=O)OCCCSSCCCCC [YK-110]	271783 RLU	74.82	82.28	90.74	0.18	42.85%					0.13 times	0.25 times	0.20 times	0.21 times	40%	40%	40%			
CCCCCCCCCCOC(=O)CCCN(CCCO)CCCCCC(=O)OCC(CCCCCCCC)CCCCCCCC [YK-107, 2-octyldecyl 6-(4-(decyloxy)-4-oxobutyl)((3-hydroxypropyl)amino)hexanoate]	22361210 RLU	0.91	1.00	1.10	14.58	90.45%	1601250	1302640	226170	13288										
CCCCCCC(CCCCCC)CCOC(=O)CCCCCN(CCO)CCCCCC(=O)OCCSCCCC [YK-112, 3-hexylnonyl-6-(6-(2-(butylthio)ethoxy)-6-oxohexyl)((2-hydroxyethyl)amino)hexanoate]	2012 RLU				0.0013	9.82%					0.0010 times	0.0019 times	0.0014 times	0.0016 times	80.30% and 80%	80.63% and 80%	80.04% and 80%			
